Data taken from patent US9994528B2, “Certain amino-pyridines and amino-triazines, compositions thereof, and methods for their use” (Cytokinetics, Inc., priority 2010, dated 2018).

Test system: rabbit skeletal myofibrils (approximately 90% fast fibers)
Assay: Activation of fast skeletal myofibrils (PUMA coupled-enzyme ATPase assay)
Assay type: biochemical
Conditions: AC1.4 = concentration at which the compound increased the enzymatic activity by 40%; myofibril suspension at calcium level pCa25; PM12 buffer pH 6.8
Protocol: Preparation of fast skeletal myofibrils. Rabbit skeletal myofibrils were prepared based upon the method of Herrmann et al. (Biochem. 32(28):7255-7263(1993). Myofibrils were prepared from rabbit psoas muscle purchased from Pel-Freez Biologicals (Arkansas) within 2 days of ordering, stored on ice. Minced muscle was homogenized in 10 volumes of ice-cold “standard” buffer (50 mM Tris, pH 7.4, 0.1 M potassium acetate, 5 mM KCl, 2 mM DTT, 0.2 mM PMSF, 10 μM leupeptin, 5 μM pepstatin, and 0.5 mM sodium azide) containing 5 mM EDTA and 0.5% Triton X-100 using an Omni-Macro homogenizer. Myofibrils were recovered by low speed centrifugation (3000 rpm for 10 minutes) and washed 2 times in the Triton X-100 containing buffer to ensure removal of cellular membrane. Following the Triton washes, myofibrils were washed 3 times in “standard” buffer containing 2 mM magnesium acetate. A final wash in assay buffer (12 mM PIPES, pH 6.8, 60 mM KCl, 1 mM DTT) was performed and brought to 10% sucrose for flash freezing in liquid nitrogen and storage at −80° C.
Activation of Fast Skeletal Myofibrils. Fast fiber activators were identified by measuring the enzymatic activity of muscle myofibril preparations using the proprietary PUMA™ (see, e.g., U.S. Pat. Nos. 6,410,254, 6,743,599, 7,202,051, and 7,378,254) assay system. Myofibril preparations consisted of rabbit skeletal muscle (approximately 90% fast fibers) that had been mechanically homogenized and washed with a detergent (triton X-100) to remove cellular membranes. This preparation retained all of the sarcomeric components in a native conformation and the enzymatic activity was still regulated by calcium. Compounds were tested using a myofibril suspension and a level of calcium sufficient to increase enzymatic activity of the myofibrils to 25% of their maximal rate (termed pCa25). Enzymatic activity was tracked via a pyruvate kinase and lactate dehydrogenase-coupled enzyme system. This assay regenerates myosin-produced ADP into ATP by oxidizing NADH, producing an absorbance change at 340 nm. The buffering system was 12 mM Pipes, 2 mM MgCl2, 1 mM DTT at pH 6.8 (PM12 buffer).
Using procedures similar to those described herein, utilizing reagents and intermediates commercially available (e.g., Sigma-Aldrich,) or readily synthesized by one of skill in the art, the compounds in Table 2 were synthesized, characterized and tested. AC1.4 values were determined according to the procedure described in Example 25, and the reported median AC1.4 values are as follows: A=<1 uM; B=1-10 uM; C=10-20 uM; D=>20 uM.

Compound | Mean AC1.4
COC(=O)c1ccc(F)c(-c2cnc(NCC3(c4ccccn4)CCC3)nn2)c1 [methyl 4-fluoro-3-(3-{[(2-pyridylcyclobutyl)methyl]amino}(1,2,4-triazin-6-yl))benzoate] | C (C=10-20 uM)
CC(C)(Nc1ncc(-c2cccc(C(N)=O)c2)nn1)c1ncccc1F [3-(3-{[1-(3-fluoro(2-pyridyl))-isopropyl]amino}-1,2,4-triazin-6-yl)benzamide] | B (B=1-10 uM)
CC(C)(Nc1ncc(-c2cc(CNC(=O)CN)ccc2F)nn1)c1ncccc1F [2-amino-N-{[4-fluoro-3-(3-{[1-(3-fluoro(2-pyridyl))-isopropyl]amino}(1,2,4-triazin-6-yl))phenyl]methyl}acetamide] | B (B=1-10 uM)
CC(C)(Nc1ncc(-c2cc(C(N)=O)ccc2F)nn1)c1ncccc1C(F)F [3-[3-({1-[3-(difluoromethyl)(2-pyridyl)]-isopropyl}amino)(1,2,4-triazin-6-yl)]-4-fluorobenzamide] | C (C=10-20 uM)
CC(C)(CNc1ccc(-c2ccc(C(N)=O)cc2)cn1)c1ccc(F)cc1 [4-(6-{[2-(4-fluorophenyl)-2-methylpropyl]amino}-3-pyridyl)benzamide] | B (B=1-10 uM)
OCc1cnc(-c2cnc(NCC3(c4ncccc4F)CCC3)nn2)s1 [{2-[3-({[(3-fluoro-2-pyridyl)cyclobutyl]methyl}amino)-1,2,4-triazin-6-yl]-1,3-thiazol-5-yl}methan-1-ol] | C (C=10-20 uM)
OCc1cnc(-c2cnc(NC[C@]3(c4ncccc4F)C[C@H](F)C3)nn2)s1 [{2-[3-({[3-fluoro-1-(3-fluoro(2-pyridyl))cyclobutyl]methyl}amino)-1,2,4-triazin-6-yl]-1,3-thiazol-5-yl}methan-1-ol] | B (B=1-10 uM)
NC(=O)c1cccc(-c2cnc(NC[C@]3(c4ncccc4F)C[C@H](F)C3)nn2)c1 [3-[3-({[3-fluoro-1-(3-fluoro(2-pyridyl))cyclobutyl]methyl}amino)-1,2,4-triazin-6-yl]benzamide] | A (A=<1 uM)
CC(C)=Cc1cccc(NCC(C)(C)c2ccc(F)cc2)n1 [[2-(4-fluorophenyl)-2-methylpropyl][6-(2-methylprop-1-enyl)(2-pyridyl)]amine] | D (D=>20 uM)
NCc1cnc(-c2cnc(NC[C@]3(c4ncccc4F)C[C@H](F)C3)nn2)s1 [{6-[5-(aminomethyl)(1,3-thiazol-2-yl)](1,2,4-triazin-3-yl)}{[3-fluoro-1-(3-fluoro(2-pyridyl))cyclobutyl]methyl}amine] | B (B=1-10 uM)
CNC(=O)c1cccc(-c2cnc(NC[C@]3(c4ncccc4F)C[C@H](F)C3)nn2)c1 [{3-[3-({[3-fluoro-1-(3-fluoro(2-pyridyl))cyclobulyl]methyl}amino)(1,2,4-triazin-6-yl)]phenyl}-N-methylcarboxamide] | B (B=1-10 uM)
Nc1n[nH]c2ccc(-c3cnc(NCC4(c5ncccc5F)CCC4)nn3)cc12 [[6-(3-amino(1H-indazol-5-yl))(1,2,4-triazin-3-yl)]{[(3-fluoro(2-pyridyl))cyclobutyl]methyl}amine] | B (B=1-10 uM)
CC(C)(Nc1ncc(-c2ccc(F)c(C(N)=O)c2)nn1)c1ncccc1F [2-fluoro-5-(3-{[1-(3-fluoro(2-pyridyl))-isopropyl]amino}(1,2,4-triazin-6-yl))benzamide] | D (D=>20 uM)
CC(C)(Nc1ncc(-c2cc(C(N)=O)ccc2F)nn1)c1ccc(F)cc1 [4-fluoro-3-(3-{[1-(4-fluorophenyl)-isopropyl]amino}(1,2,4-triazin-6-yl))benzamide] | A (A=<1 uM)
CC(C)(Nc1ncc(-c2ccc(C(N)=O)cc2F)nn1)c1ncccc1F [3-fluoro-4-(3-{[1-(3-fluoro(2-pyridyl))-isopropyl]amino}(1,2,4-triazin-6-yl))benzamide] | D (D=>20 uM)
CC(C)(CNc1ncc(-n2cc(C(N)=O)cn2)nn1)c1ccc(F)cc1 [1-(3-{[2-(4-fluorophenyl)-2-methylpropyl]amino}-1,2,4-triazin-6-yl)pyrazole-4-carboxamide] | B (B=1-10 uM)
CNC(=O)c1ccc(F)c(-c2cnc(NC[C@]3(c4ncccc4Cl)C[C@H](F)C3)nn2)c1 [{3-[3-({[1-(3-chloro(2-pyridyl))-3-fluorocyclobutyl]methyl}amino)(1,2,4-triazin-6-yl)]-4-fluorophenyl}-N-methylcarboxamide] | A (A=<1 uM)

Compound | Mean AC1.4
COC(=O)NCc1ccc(NCC(C)(C)c2ccc(F)cc2)nc1 [N-[(6-{[2-(4-fluorophenyl)-2-methylpropyl]amino}(3-pyridyl))methyl]methoxycarboxamide] | D (D=>20 uM)
CC(C)(Nc1ncc(-c2ncc(CN)s2)nn1)c1ncccc1Cl [{6-[5-(aminomethyl)(1,3-thiazol-2-yl)](1,2,4-triazin-3-yl)}[1-(3-chloro(2-pyridyl))-isopropyl]amine] | D (D=>20 uM)
2-{2-[3-({[3-fluoro-1-(3-fluoro(2- pyridyl))cyclobutyl]methyl}amino)-1,2,4- triazin-6-yl]-1,3-thiazoI-5-yl}acetamide | C (C=10-20 uM)
CC(C)(CNc1ccc(-c2cccc(C(N)=O)c2)cn1)c1ccc(F)cc1 [3-(6-{[2-(4-fluorophenyl)-2-methylpropyl]amino}-3-pyridyl)benzamide] | A (A=<1 uM)
CC(=O)NCc1cnc(-c2cnc(NC(C)(C)c3ncccc3Cl)nn2)s1 [N-{[2-(3-{[1-(3-chloro(2-pyridyl))-isopropyl]amino}-1,2,4-triazin-6-yl)-1,3-thiazol-5-yl]methyl}acetamide] | D (D=>20 uM)
COC(=O)NCCc1ccc(NCC(C)(C)c2ccc(F)cc2)nc1 [N-[2-(6-{[2-(4-fluorophenyl)-2-methylpropyl]amino}(3-pyridyl))ethyl]methoxycarboxamide] | D (D=>20 uM)
CC(C)(Nc1ncc(-c2ncc(C(N)=O)s2)nn1)c1cccc(OC(F)F)n1 [2-[3-({1-[6-(difluoromethoxy)(2-pyridyl)]-isopropyl}amino)-1,2,4-triazin-6-yl]-1,3-thiazole-5-carboxamide] | B (B=1-10 uM)
CC(C)(Nc1ncc(-c2cc(C(N)=O)ccc2F)nn1)c1ncccc1F [4-fluoro-3-(3-{[1-(3-fluoro(2-pyridyl))-isopropyl]amino}(1,2,4-triazin-6-yl))benzamide] | B (B=1-10 uM)
CC(C)(Nc1ncc(-c2cc(C(N)=O)ccc2F)nn1)c1cccc(OC(F)F)n1 [3-[3-({1-[6-(difluoromethoxy)(2-pyridyl)]-isopropyl}amino)(1,2,4-triazin-6-yl)]-4-fluorobenzamide] | A (A=<1 uM)
NC(=O)c1ccc(F)c(-c2cnc(NCC3(c4ncccc4Cl)CC(F)(F)C3)nn2)c1 [3-[3-({[1-(3-chloro(2-pyridyl))-3,3-difluorocyclobutyl]methyl}amino)(1,2,4-triazin-6-yl)]-4-fluorobenzamide] | A (A=<1 uM)
CC(C)(CNc1ccc(C(O)CO)cn1)c1ccc(F)cc1 (stereo not shown) [1-(6-{[2-(4-fluorophenyl)-2-methylpropyl]amino}-3-pyridyl)ethane-1,2-diol] | D (D=>20 uM)
CC(C)(CNc1ccc(C#N)cn1)c1ccc(F)cc1 [6-{[2-(4-fluorophenyl)-2-methylpropyl]amino}pyridine-3-carbonitrile] | C (C=10-20 uM)
c1ccc(-c2cccc(NC3(c4ccccc4)CCC3)n2)cc1 [(6-phenyl(2-pyridyl))(phenylcyclobutyl)amine] | D (D=>20 uM)
CC(C)(Nc1ncc(-c2cc(NS(N)(=O)=O)ccc2F)nn1)c1ncccc1F [amino[4-fluoro-3-(3-{[1-(3-fluoro(2-pyridyl))-isopropyl]amino}(1,2,4-triazin-6-yl))phenyl]sulfonamide] | B (B=1-10 uM)
C[C@@H](CNc1ccc(-c2cccc(C(N)=O)c2)cn1)c1ccc(F)cc1 [3-(6-{[(2R)-2-(4-fluorophenyl)propyl]amino}-3-pyridyl)benzamide] | B (B=1-10 uM)
CC(C)(Nc1ncc(-c2ncc(CO)s2)nn1)c1ncccc1Cl [[2-(3-{[1-(3-chloro(2-pyridyl))-isopropyl]amino}-1,2,4-triazin-6-yl)-1,3-thiazol-5-yl]methan-1-ol] | D (D=>20 uM)
O=C(O)c1ccc(F)c(-c2cnc(NCC3(c4ncccc4F)CCC3)nn2)c1 [4-fluoro-3-[3-({[(3-fluoro(2-pyridyl))cyclobulyl]methyl}amino)(1,2,4-triazin-6-yl)]benzoic acid] | B (B=1-10 uM)
